This passage reports T/C results from PubChem BioAssay AID330 (DTP/NCI, 2004).

Where “and” joins values, the source holds several entries; their conditions need not be identical. Equal values may be shown once. Inconclusive results and toxic doses are left out.

The subject of the assay is P388 leukemia ip, CD2F1 mice, survival T/C. The assay can be described thus: NCI In Vivo Anticancer Drug Screen. Data for tumor model P388 Leukemia (intraperitoneal) in CD2F1 (CDF1) mice. Conditions: endpoint: median survival time, higher = longer survival. Summed up:
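Mice carrying the transplanted tumor received test compound or vehicle. Survival was recorded in each group, and the value is the treated-group measurement divided by that of the vehicle-treated control group.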

Setting [1] is: dose: 50.0 mg/kg/injection, schedule: Q01DX009 (ip), vehicle: saline with Tween-80.
[2] abbreviates: dose: 100.0 mg/kg/injection, schedule: Q01DX009 (ip), vehicle: saline with Tween-80.
Where [3] appears, read: dose: 50.0 mg/kg/injection, schedule: Q01DX009 (ip), vehicle: Klucel (hydroxypropylcellulose) (HPC).
Setting [4] is: dose: 100.0 mg/kg/injection, schedule: Q01DX009 (ip), vehicle: Klucel (hydroxypropylcellulose) (HPC).
Where [5] appears, read: dose: 200.0 mg/kg/injection, schedule: Q01DX009 (ip), vehicle: Klucel (hydroxypropylcellulose) (HPC).
Where [6] appears, read: dose: 60.0 mg/kg/injection, schedule: Q01DX005 (ip), vehicle: saline with Tween-80.
The mark [7] stands for this setting: dose: 120.0 mg/kg/injection, schedule: Q01DX005 (ip), vehicle: saline with Tween-80.
[8] abbreviates: dose: 50.0 mg/kg/injection, schedule: Q01DX005 (ip), vehicle: Klucel (hydroxypropylcellulose) (HPC).
[9] abbreviates: dose: 100.0 mg/kg/injection, schedule: Q01DX005 (ip), vehicle: Klucel (hydroxypropylcellulose) (HPC).
[10] abbreviates: dose: 200.0 mg/kg/injection, schedule: Q01DX005 (ip), vehicle: Klucel (hydroxypropylcellulose) (HPC).
The mark [11] stands for this setting: dose: 50.0 mg/kg/injection, schedule: Q01DX005 (ip), vehicle: saline with Tween-80.
The mark [12] stands for this setting: dose: 100.0 mg/kg/injection, schedule: Q01DX005 (ip), vehicle: saline with Tween-80.
The mark [13] stands for this setting: dose: 200.0 mg/kg/injection, schedule: Q01DX005 (ip), vehicle: saline with Tween-80.
[14] abbreviates: dose: 25.0 mg/kg/injection, schedule: Q01DX005 (ip), vehicle: Klucel (hydroxypropylcellulose) (HPC).

For `Cc1cc(C)c(S(=O)(=O)O)c(C)c1Nc1ccc(Nc2c(C)cc(C)c(S(=O)(=O)O)c2C)c2c1C(=O)c1ccccc1C2=O`, the T/C reads like this: under setting [1], 92 % of control; under setting [2], 91 % of control.
Consider `Clc1cc2c(c(CSc3nc4ccccc4n4cccc34)c1)OCOC2`, for which the T/C under setting [3] is 96 % of control, the T/C under setting [4] is 96 % of control and the T/C under setting [5] was 98 % of control.
`Cc1csc(NC(=O)Nc2ccc(F)cc2[N+](=O)[O-])n1`: the T/C (dose: 25.0 mg/kg/injection, schedule: Q01DX009 (ip), vehicle: Klucel (hydroxypropylcellulose) (HPC)) was 106 % of control; the T/C under setting [3] was 97 % of control; the T/C under setting [1] is 105 % of control; the T/C under setting [4] is 100 % of control; the T/C under setting [2] is 94 % of control; the T/C under setting [5] was 95 % of control.
Regarding `[CH3][Sn]([CH3])([Cl])[O][Sn]([CH3])([CH3])[Cl]`, the T/C was 115 % of control (dose: 1.56 mg/kg/injection, schedule: Q01DX009 (ip), vehicle: saline); 109 % of control and 118 % of control (dose: 3.12 mg/kg/injection, schedule: Q01DX009 (ip), vehicle: saline); 118 % of control and 123 % of control (dose: 6.25 mg/kg/injection, schedule: Q01DX009 (ip), vehicle: saline); 116 % of control (dose: 12.5 mg/kg/injection, schedule: Q04DX003 (ip), vehicle: saline); 124 % of control (dose: 25.0 mg/kg/injection, schedule: Q04DX003 (ip), vehicle: saline); 109 % of control (dose: 50.0 mg/kg/injection, schedule: Q04DX003 (ip), vehicle: saline).
Regarding `NS(=O)(=O)c1ccc(NCc2c3ccccc3nc3cc(Cl)ccc23)cc1`, the T/C reads like this: under setting [6], 104 % of control; under setting [7], 95 % of control; (dose: 240.0 mg/kg/injection, schedule: Q01DX005 (ip), vehicle: saline with Tween-80) 94 % of control.
As to `Nc1nc(N)c2c(Cl)c(CNc3ccc(C(=O)NC(CC(=O)O)C(=O)O)cc3)ccc2n1` (centres undefined), the T/C runs as follows: (dose: 0.39 mg/kg/injection, schedule: Q01DX009 (ip), vehicle: saline with Tween-80) 210 % of control; (dose: 0.78 mg/kg/injection, schedule: Q01DX009 (ip), vehicle: saline with Tween-80) 201 % of control; (dose: 1.56 mg/kg/injection, schedule: Q01DX009 (ip), vehicle: saline with Tween-80) 90 % of control; (dose: 780.0 micrograms/kg/injection, schedule: Q01DX009 (ip), vehicle: saline with Tween-80) 194 % of control; (dose: 1560.0 micrograms/kg/injection, schedule: Q01DX009 (ip), vehicle: saline with Tween-80) 94 % of control.
Consider `CC([NH-])C[NH-].O=C(O)CC(=O)O.[Pt+2]`, for which the T/C runs as follows: (dose: 25.0 mg/kg/injection, schedule: Q04DX002 (ip), vehicle: saline with Tween-80) 153 % of control and 158 % of control; (dose: 50.0 mg/kg/injection, schedule: Q04DX002 (ip), vehicle: saline with Tween-80) 179 % of control and 183 % of control.
For `N#C/C(N)=C(/N)C#N`, the T/C was 100 % of control and 107 % of control (dose: 12.5 mg/kg/injection, schedule: Q01DX009 (ip), vehicle: saline with Tween-80); 102 % of control and 111 % of control (dose: 25.0 mg/kg/injection, schedule: Q01DX009 (ip), vehicle: saline with Tween-80); 104 % of control and 117 % of control and 124 % of control under setting [1].
For the compound `CCc1nc(N)nc(N)c1-c1ccc(N(C)Cc2ccccc2)c([N+](=O)[O-])c1`, the T/C (dose: 60.0 mg/kg/injection, schedule: Q01DX005 (ip), vehicle: Klucel (hydroxypropylcellulose) (HPC)) is 116 % of control; the T/C (dose: 120.0 mg/kg/injection, schedule: Q01DX005 (ip), vehicle: Klucel (hydroxypropylcellulose) (HPC)) was 120 % of control; the T/C (dose: 240.0 mg/kg/injection, schedule: Q01DX005 (ip), vehicle: Klucel (hydroxypropylcellulose) (HPC)) is 185 % of control; the T/C (dose: 480.0 mg/kg/injection, schedule: Q01DX005 (ip), vehicle: Klucel (hydroxypropylcellulose) (HPC)) is 205 % of control.
As to `COC(=O)C(C)NC(=O)C(C)NC(=O)C(C)NC(C)=O` (centres undefined), the T/C by setting is: under setting [8], 102 % of control; under setting [9], 94 % of control; under setting [10], 100 % of control.
With `O=C(O)Cc1csc(=S)n1-c1ccccc1`, the T/C is, setting by setting: under setting [11], 97 % of control; under setting [12], 102 % of control; under setting [13], 90 % of control.
`COc1cc(C(CC(C)=O)c2cc3c(cc2OC(C)=O)OCO3)cc(OC)c1OC` (centres undefined): the T/C is 95 % of control (dose: 30.0 mg/kg/injection, schedule: Q01DX005 (ip), vehicle: saline with Tween-80); 100 % of control and 93 % of control under setting [6]; 120 % of control under setting [7].
Consider `CCOC(=O)c1cnc2c(ccc3cc(OC)ccc32)c1NCCCN(CC)CC`, for which the T/C is 97 % of control under setting [14], 97 % of control under setting [8], 100 % of control under setting [9] and 97 % of control under setting [10].
On to `C1CC[N-]CC1.C1CC[N-]CC1.C1CC[N-]CC1.[Cr+6].[N-]=C=S.[N-]=C=S.[N-]=C=S`, for which the T/C (dose: 100.0 mg/kg/injection, schedule: Q04DX002 (ip), vehicle: acetone) is 97 % of control; the T/C (dose: 100.0 mg/kg/injection, schedule: Q04DX002 (ip), vehicle: distilled water + alcohol) was 99 % of control; the T/C (dose: 200.0 mg/kg/injection, schedule: Q04DX002 (ip), vehicle: acetone) was 97 % of control.
With `CCCCCCCCOC(=O)c1[nH]cnc1/N=N\N(C)C`, the T/C (dose: 100.0 mg/kg/injection, schedule: Q04DX003 (ip), vehicle: Klucel (hydroxypropylcellulose) (HPC)) was 109 % of control; the T/C (dose: 200.0 mg/kg/injection, schedule: Q04DX003 (ip), vehicle: Klucel (hydroxypropylcellulose) (HPC)) was 113 % of control; the T/C (dose: 400.0 mg/kg/injection, schedule: Q04DX003 (ip), vehicle: Klucel (hydroxypropylcellulose) (HPC)) was 104 % of control.
For `O=C1N(CCc2ccccc2)CCCS1(=O)=O`, the T/C runs as follows: under setting [11], 115 % of control; under setting [12], 117 % of control.
As for `CC(=O)O[C@@H]1C[C@@H]2[C@@]3(C)CC[C@@H](OC(=O)CC(=O)O)C(C)(C)[C@@H]3CC[C@@]2(C)[C@]2(C)CCCC([C@]3(C)CC[C@H](C(C)(C)O)O3)[C@@H]12` (some centres undefined), the T/C by setting is: under setting [14], 92 % of control; under setting [8], 99 % of control; under setting [9], 92 % of control and 97 % of control; under setting [10], 86 % of control and 98 % of control; (dose: 400.0 mg/kg/injection, schedule: Q01DX005 (ip), vehicle: Klucel (hydroxypropylcellulose) (HPC)) 91 % of control.
Turning to `Nc1ccc2c(SCCCCSc3c4ccccc4nc4cc(N)ccc34)c3ccccc3nc2c1`, the T/C reads like this: under setting [6], 106 % of control; under setting [7], 100 % of control.
For the compound `C=C(C)C(C(=O)OC(c1ccccc1)c1ccccc1)N1C(=O)C(NC(=O)COc2ccccc2)C1SSc1nc2ccccc2s1` (centres undefined), the T/C under setting [11] is 94 % of control, the T/C under setting [12] is 89 % of control and the T/C under setting [13] was 93 % of control.
As to `Nc1nc(=O)n(C2CC(O)C(O)C(CO)O2)cc1F` (centres undefined), the T/C by setting is: under setting [2], 109 % of control; (dose: 200.0 mg/kg/injection, schedule: Q01DX009 (ip), vehicle: saline with Tween-80) 97 % of control; (dose: 400.0 mg/kg/injection, schedule: Q01DX009 (ip), vehicle: saline with Tween-80) 93 % of control.
Turning to `CCS/C(C#N)=C(/Br)c1ccc(OC)cc1`, the T/C is 98 % of control under setting [1] and 100 % of control under setting [2].
On to `N=C(N)Cc1ccc(NC(=O)c2ccc(C(=O)Nc3ccc(CC(=N)N)cc3)cc2)cc1`, for which the T/C reads like this: (dose: 9.37 mg/kg/injection, schedule: Q01DX001 (ip), vehicle: saline with Tween-80) 120 % of control; (dose: 18.75 mg/kg/injection, schedule: Q01DX001 (ip), vehicle: saline with Tween-80) 120 % of control; (dose: 37.5 mg/kg/injection, schedule: Q01DX001 (ip), vehicle: saline with Tween-80) 115 % of control.
For the compound `COC(=O)NC(=O)CCC(=O)O`, the T/C reads like this: (dose: 12.5 mg/kg/injection, schedule: Q01DX009 (ip), vehicle: saline) 104 % of control; (dose: 25.0 mg/kg/injection, schedule: Q01DX009 (ip), vehicle: saline) 97 % of control; (dose: 50.0 mg/kg/injection, schedule: Q01DX009 (ip), vehicle: saline) 100 % of control and 103 % of control.
Take `CCCC1OCC(O)C(C(O)C(=O)CN(C)c2ccccc2)O1` (centres undefined): the T/C reads like this: under setting [11], 98 % of control; under setting [12], 100 % of control; under setting [13], 98 % of control.
